Experimental data: article PMC12775819, “Optimizing PSMA-617-based inhibitors through charged linker modifications: Insights into structure-activity relationships” (Theranostics, 2026)
Non-standard residues stand in square brackets, D forms with d. Residues, ends and D or L forms follow the SMILES beside them. *: point of attachment. DOTA = O=C(O)CN1CCN(CC(=O)O)CCN(CC(=O)*)CCN(CC(=O)O)CC1; EuK = O=C(O)CC[C@H](NC(=O)N[C@@H](CCCCN*)C(=O)O)C(=O)O; 2Nal = N[C@@H](Cc1ccc2ccccc2c1)C(=O)O; Trx = NC[C@H]1CC[C@H](C(=O)O)CC1

Columns and labels:
in vivo = settings: male, BALB/c nu/nu, mouse, iv, 500 pmol, total radioactivity
[1] = tested on: PSMA-positive LNCaP cells; experiment: Surface binding and internalization of 68Ga-labeled compounds; type: cell-based, human; settings: for Internalization Block / Surface Binding Block / Internalization / Surface Binding: 30 nM, 45 min, 37 °C; for Internalization Block / Surface Binding Block: blocked with 2-PMPA 500 µM; for Internalization / Surface Binding: unblocked; for Specific Internalization / Specific Surface Binding: difference of unblocked and blocked values
Experimental: The PSMA-positive human cell line LNCaP (human lymph node carcinoma of the prostate; ATCC CRL-1740) was cultivated adherently at 37 °C and humidified 5% CO2 with RPMI-1640 (Thermo Fisher Scientific, Germany) supplemented with 10% fetal bovine serum (Sigma-Aldrich, Germany), 1% sodium pyruvate (Life Technologies, Germany) and 1% penicillin/[…] (Thermo Fisher Scientific, Germany). A mixture of trypsin/ethylenediaminetetraacetic acid (0.05% / 0.02%; Thermo Fisher Scientific, Germany) was used for cell harvesting (last authentication: April 2024).
Internalization assays were performed on poly-L-lysine coated 24-well cell culture plates. The day before the experiment, LNCaP cells (10^5 cells/well) were harvested and seeded to the wells. The cells were incubated with the ^68Ga-labeled compounds (250 µl, 30 nM, diluted in RPMI medium) for 45 min at 37 °C. […] The medium was then removed and the cells washed with ice-cold PBS buffer (3 × 1 ml). To remove surface bound compounds, ice-cold glycine buffer (2 × 0.5 ml, 50 mM, pH 2.8) was added to the wells and collected after 5 min in a combined fraction. After washing once with PBS (1 ml), NaOH (0.5 ml, 0.3 M) was added to the cells for lysation. Collected surface-bound, internalized fractions and standards from the stock solutions (25 µl) were measured in a γ-counter. Data was normalized and presented as percentage of the initially added radioactivity bound to 10^5 cells [%IA/10^5 cells].

[2] = Partition coefficient (logD), n-octanol/PBS pH 7.4; type: physicochemical; settings: 68Ga-labeled compounds, mean ± SD, read-out: Partition Coefficient [logDoctanol/PBS]
Experimental: To determine the lipophilicity expressed as distribution coefficient (logD), a two-phase system of n-octanol (500 µl) and phosphate buffered saline (PBS) (490 µl) at pH 7.4 was used (n = 4). Compounds were radiolabeled with [^68Ga]Ga^3+ and the mixture diluted to a concentration of 0.25 µM in PBS. 10 µl of the 0.25 µM dilution were added to the n-octanol / PBS mixture. After extensive mixing, the 2-phase system was centrifuged for 10 min at 14,000 rpm and 4 °C. Two samples from each phase (100 µl) were taken and measured in a γ-gamma counter (PerkinElmer, Waltham, USA). […] The data is presented as the mean value with the standard deviation (SD).

| SUV at 1 h (in vivo; SUV kidneys) | SUV at 2 h (in vivo; SUV kidneys) | SUV at 1 h (in vivo; SUV muscle) | SUV at 2 h (in vivo; SUV muscle) | SUV at 1 h (in vivo; SUV tumor) | SUV at 2 h (in vivo; SUV tumor) | logD [2] | tissue to tissue ratio at 1 h (in vivo) | tissue to tissue ratio at 2 h (in vivo) | Structure (SMILES) | Internalization Block [1] | Surface Binding Block [1] | Internalization [1] | Surface Binding [1] | Specific Internalization [1] | Specific Surface Binding [1] |
| --- | --- | --- | --- | --- | --- | --- | --- | --- | --- | --- | --- | --- | --- | --- | --- |
| 1.64 ± 0.1 SUV | 1.01 ± 0.09 SUV | 0.11 ± 0.02 SUV | 0.11 ± 0.01 SUV | 0.78 ± 0.05 SUV | 0.74 ± 0.06 SUV | -3.4 ± 0.3 | – | – | O=C(O)CC[C@H](NC(=O)N[C@@H](CCCCNC(=O)[C@H](Cc1ccc2ccccc2c1)NC(=O)[C@H](Cc1c[nH]cn1)NC(=O)[C@H](CCC(=O)O)NC(=O)[C@H](Cc1c[nH]cn1)NC(=O)[C@H](CCC(=O)O)NC(=O)[C@H](Cc1c[nH]cn1)NC(=O)[C@H](CCC(=O)O)NC(=O)[C@H]1CC[C@H](CNC(=O)CN2CCN(CC(=O)O)CCN(CC(=O)O)CCN(CC(=O)O)CC2)CC1)C(=O)O)C(=O)O [PS2, EuK-NaI-(HE)3-ChX-DOTA] ({DOTA-Trx}-EHEHEH[2Nal]-EuK) | 0.21 ± 0.036 %Binding / %Internalization | 0.183 ± 0.024 %Binding / %Internalization | 0.55 ± 0.04 %Binding / %Internalization | 1.01 ± 0.14 %Binding / %Internalization | 0.34 ± 0.24 %Binding / %Internalization | 0.83 ± 0.27 %Binding / %Internalization |
| 1.71 ± 0.2 SUV | 1.32 ± 0.15 SUV | 0.09 ± 0.01 SUV | 0.08 ± 0.02 SUV | 0.43 ± 0.06 SUV | 0.3 ± 0.11 SUV | -3.5 ± 0.2 | – | – | O=C(O)CC[C@H](NC(=O)N[C@@H](CCCCNC(=O)[C@H](Cc1c[nH]cn1)NC(=O)[C@H](CCC(=O)O)NC(=O)[C@H](Cc1c[nH]cn1)NC(=O)[C@H](CCC(=O)O)NC(=O)[C@H](Cc1c[nH]cn1)NC(=O)[C@H](CCC(=O)O)NC(=O)[C@H](Cc1ccc2ccccc2c1)NC(=O)[C@H]1CC[C@H](CNC(=O)CN2CCN(CC(=O)O)CCN(CC(=O)O)CCN(CC(=O)O)CC2)CC1)C(=O)O)C(=O)O [PS1, EuK-(HE)3-NaI-ChX-DOTA] ({DOTA-Trx}-[2Nal]EHEHEH-EuK) | 0.314 ± 0.024 %Binding / %Internalization | 0.069 ± 0.012 %Binding / %Internalization | 0.66 ± 0.14 %Binding / %Internalization | 1.15 ± 0.17 %Binding / %Internalization | 0.35 ± 0.3 %Binding / %Internalization | 1.09 ± 0.34 %Binding / %Internalization |
| – | – | – | – | – | – | – | 0.44 ± 0.15 | 2.15 ± 0.22 | O=C(O)CC[C@H](NC(=O)N[C@@H](CCCCNC(=O)[C@H](CCC(=O)O)NC(=O)[C@H](CCC(=O)O)NC(=O)[C@H](CCC(=O)O)NC(=O)[C@H](Cc1ccc2ccccc2c1)NC(=O)[C@H]1CC[C@H](CNC(=O)CN2CCN(CC(=O)O)CCN(CC(=O)O)CCN(CC(=O)O)CC2)CC1)C(=O)O)C(=O)O [[^68Ga]Ga-PS6, metal not drawn] ({DOTA-Trx}-[2Nal]EEE-EuK) | – | – | – | – | – | – |
| 1.6 ± 0.12 SUV | 0.59 ± 0.06 SUV | 0.09 ± 0.01 SUV | 0.12 ± 0.02 SUV | 0.71 ± 0.05 SUV | 0.56 ± 0.08 SUV | -3.3 ± 0.1 | – | – | O=C(O)CC[C@H](NC(=O)N[C@@H](CCCCNC(=O)[C@H](Cc1ccc2ccccc2c1)NC(=O)[C@H](CCC(=O)O)NC(=O)[C@H](CCC(=O)O)NC(=O)[C@H](CCC(=O)O)NC(=O)[C@H]1CC[C@H](CNC(=O)CN2CCN(CC(=O)O)CCN(CC(=O)O)CCN(CC(=O)O)CC2)CC1)C(=O)O)C(=O)O [PS7, EuK-NaI-E3-ChX-DOTA] ({DOTA-Trx}-EEE[2Nal]-EuK) | – | – | – | – | – | – |
| 8.13 ± 1.31 SUV | 1.09 ± 0.06 SUV | 0.21 ± 0.03 SUV | 0.06 ± 0.02 SUV | 0.65 ± 0.04 SUV | 0.37 ± 0.05 SUV | -3.7 ± 0.6 | – | – | O=C(O)CC[C@H](NC(=O)N[C@@H](CCCCNC(=O)[C@H](Cc1ccc2ccccc2c1)NC(=O)[C@H](Cc1c[nH]cn1)NC(=O)[C@H](Cc1c[nH]cn1)NC(=O)[C@H](Cc1c[nH]cn1)NC(=O)[C@H]1CC[C@H](CNC(=O)CN2CCN(CC(=O)O)CCN(CC(=O)O)CCN(CC(=O)O)CC2)CC1)C(=O)O)C(=O)O [PS10, EuK-NaI-H3-ChX-DOTA] ({DOTA-Trx}-HHH[2Nal]-EuK) | – | – | – | – | – | – |
| 1.24 ± 0.08 SUV | 0.77 ± 0.13 SUV | 0.11 ± 0.02 SUV | 0.1 ± 0.03 SUV | 0.82 ± 0.07 SUV | 0.88 ± 0.09 SUV | -3.6 ± 0.1 | – | – | O=C(O)CC[C@H](NC(=O)N[C@@H](CCCCNC(=O)[C@H](Cc1ccc2ccccc2c1)NC(=O)[C@H]1CC[C@H](CNC(=O)[C@H](Cc2c[nH]cn2)NC(=O)[C@H](Cc2c[nH]cn2)NC(=O)[C@H](Cc2c[nH]cn2)NC(=O)CN2CCN(CC(=O)O)CCN(CC(=O)O)CCN(CC(=O)O)CC2)CC1)C(=O)O)C(=O)O [PS11, EuK-NaI-ChX-H3-DOTA] ({DOTA}-HHH[Trx][2Nal]-EuK) | – | – | – | – | – | – |
| 1.53 ± 0.08 SUV | 0.4 ± 0.05 SUV | 0.11 ± 0.02 SUV | 0.11 ± 0.02 SUV | 0.69 ± 0.07 SUV | 0.85 ± 0.08 SUV | -3.1 ± 0.3 | – | – | O=C(O)CC[C@H](NC(=O)N[C@@H](CCCCNC(=O)[C@H](CCC(=O)O)NC(=O)[C@H](CCC(=O)O)NC(=O)[C@H](CCC(=O)O)NC(=O)[C@H](Cc1ccc2ccccc2c1)NC(=O)[C@H]1CC[C@H](CNC(=O)CN2CCN(CC(=O)O)CCN(CC(=O)O)CCN(CC(=O)O)CC2)CC1)C(=O)O)C(=O)O [PS6, EuK-E3-NaI-ChX-DOTA] ({DOTA-Trx}-[2Nal]EEE-EuK) | – | – | – | – | – | – |
| 0.98 ± 0.09 SUV | 0.74 ± 0.09 SUV | 0.082 ± 0.002 SUV | 0.07 ± 0.03 SUV | 0.21 ± 0.05 SUV | 0.12 ± 0.03 SUV | -3.2 ± 0.1 | – | – | O=C(O)CC[C@H](NC(=O)N[C@@H](CCCCNC(=O)[C@H](Cc1c[nH]cn1)NC(=O)[C@H](Cc1c[nH]cn1)NC(=O)[C@H](Cc1c[nH]cn1)NC(=O)[C@H](Cc1ccc2ccccc2c1)NC(=O)[C@H]1CC[C@H](CNC(=O)CN2CCN(CC(=O)O)CCN(CC(=O)O)CCN(CC(=O)O)CC2)CC1)C(=O)O)C(=O)O [PS9, EuK-H3-NaI-ChX-DOTA] ({DOTA-Trx}-[2Nal]HHH-EuK) | – | – | – | – | – | – |
| 3.81 ± 0.15 SUV | 2.77 ± 0.2 SUV | 0.11 ± 0.02 SUV | 0.1 ± 0.03 SUV | 1.15 ± 0.04 SUV | 1.07 ± 0.09 SUV | -3.9 ± 0.3 | – | – | O=C(O)CC[C@H](NC(=O)N[C@@H](CCCCNC(=O)[C@H](Cc1ccc2ccccc2c1)NC(=O)[C@H]1CC[C@H](CNC(=O)[C@H](CCC(=O)O)NC(=O)[C@H](Cc2c[nH]cn2)NC(=O)[C@H](CCC(=O)O)NC(=O)[C@H](Cc2c[nH]cn2)NC(=O)[C@H](CCC(=O)O)NC(=O)[C@H](Cc2c[nH]cn2)NC(=O)CN2CCN(CC(=O)O)CCN(CC(=O)O)CCN(CC(=O)O)CC2)CC1)C(=O)O)C(=O)O [PS4, EuK-NaI-ChX-(EH)3-DOTA] ({DOTA}-HEHEHE[Trx][2Nal]-EuK) | 0.149 ± 0.047 %Binding / %Internalization | 0.080 ± 0.009 %Binding / %Internalization | 0.81 ± 0.29 %Binding / %Internalization | 1.43 ± 0.12 %Binding / %Internalization | 0.66 ± 0.68 %Binding / %Internalization | 1.35 ± 0.21 %Binding / %Internalization |
| 3.89 ± 0.65 SUV | 2.7 ± 0.89 SUV | 0.08 ± 0.02 SUV | 0.11 ± 0.02 SUV | 1.32 ± 0.08 SUV | 0.86 ± 0.39 SUV | -3 ± 0.1 | – | – | O=C(O)CC[C@H](NC(=O)N[C@@H](CCCCNC(=O)[C@H](Cc1ccc2ccccc2c1)NC(=O)[C@H]1CC[C@H](CNC(=O)[C@H](CCC(=O)O)NC(=O)[C@H](CCC(=O)O)NC(=O)[C@H](CCC(=O)O)NC(=O)CN2CCN(CC(=O)O)CCN(CC(=O)O)CCN(CC(=O)O)CC2)CC1)C(=O)O)C(=O)O [PS8, EuK-NaI-ChX-E3-DOTA] ({DOTA}-EEE[Trx][2Nal]-EuK) | – | – | – | – | – | – |
